Reference: patent US20130071854A1, “METHODS FOR THE IDENTIFICATION AND CHARACTERIZATION OF HDAC INTERACTING COMPOUNDS” (priority 2009, published 2013)
Read-outs that look alike come from different tables or passages of the source.

Tests used:
[1] = molecular target: T1, non-HDAC targets (e.g. BZW2, ISOC2, aldehyde dehydrogenases) (Homo sapiens, UniProt Q9Y6E2); assay: Chemoproteomic binding profiling, K562 cell extract, SAHA/ITF2357 probe matrix (Kd app); conditions: protein BZW2; selected HDACi off-targets
T1 construct: endogenous in cells; host or cells: K562 whole cell extract
T1 sequence (Q9Y6E2 1-419): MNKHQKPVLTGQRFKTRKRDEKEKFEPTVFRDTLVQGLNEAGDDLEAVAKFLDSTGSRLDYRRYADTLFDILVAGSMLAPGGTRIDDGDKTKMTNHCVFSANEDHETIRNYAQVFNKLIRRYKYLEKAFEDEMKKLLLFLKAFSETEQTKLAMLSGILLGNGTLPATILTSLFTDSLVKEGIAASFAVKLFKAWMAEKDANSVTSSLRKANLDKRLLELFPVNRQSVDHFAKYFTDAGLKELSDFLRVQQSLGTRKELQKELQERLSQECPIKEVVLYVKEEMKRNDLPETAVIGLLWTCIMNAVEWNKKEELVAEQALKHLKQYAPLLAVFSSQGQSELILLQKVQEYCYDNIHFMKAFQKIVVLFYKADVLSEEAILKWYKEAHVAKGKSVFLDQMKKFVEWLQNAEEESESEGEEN

[2] = molecular target: T2, non-HDAC targets (e.g. BZW2, ISOC2, aldehyde dehydrogenases) (Homo sapiens, UniProt O94788); assay: as above; conditions: protein ALDH1A2; selected HDACi off-targets
T2 construct: endogenous in cells; host or cells: K562 whole cell extract
T2 sequence (O94788 1-518): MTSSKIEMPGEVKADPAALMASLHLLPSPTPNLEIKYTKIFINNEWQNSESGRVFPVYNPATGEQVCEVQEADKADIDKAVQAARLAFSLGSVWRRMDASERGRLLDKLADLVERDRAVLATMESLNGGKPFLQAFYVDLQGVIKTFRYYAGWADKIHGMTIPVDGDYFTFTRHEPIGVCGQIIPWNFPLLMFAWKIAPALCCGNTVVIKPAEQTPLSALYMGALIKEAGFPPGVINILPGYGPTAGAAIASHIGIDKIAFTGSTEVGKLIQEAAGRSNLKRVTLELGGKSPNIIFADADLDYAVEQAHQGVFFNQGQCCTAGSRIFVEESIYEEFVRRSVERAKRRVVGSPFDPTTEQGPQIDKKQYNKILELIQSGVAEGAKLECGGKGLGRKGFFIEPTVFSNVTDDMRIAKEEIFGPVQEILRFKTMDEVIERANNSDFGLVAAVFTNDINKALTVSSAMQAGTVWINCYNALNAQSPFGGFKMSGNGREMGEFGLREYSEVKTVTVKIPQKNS

[3] = molecular target: T3, non-HDAC targets (e.g. BZW2, ISOC2, aldehyde dehydrogenases) (Homo sapiens, UniProt Q96AB3); assay: as above; conditions: protein ISOC2; selected HDACi off-targets
T3 construct: endogenous in cells; host or cells: K562 whole cell extract
T3 sequence (Q96AB3 1-205): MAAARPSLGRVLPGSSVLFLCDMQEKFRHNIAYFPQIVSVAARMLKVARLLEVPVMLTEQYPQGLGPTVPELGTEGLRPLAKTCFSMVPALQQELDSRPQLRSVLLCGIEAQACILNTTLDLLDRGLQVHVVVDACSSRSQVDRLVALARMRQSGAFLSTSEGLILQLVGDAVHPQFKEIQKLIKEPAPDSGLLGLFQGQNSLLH

[4] = molecular target: T4, non-HDAC targets (e.g. BZW2, ISOC2, aldehyde dehydrogenases) (Homo sapiens, UniProt P16152); assay: as above; conditions: protein CBR1; selected HDACi off-targets
T4 construct: Kd^app CBR1; other: protein CBR1; selected HDACi off-targets
T4 sequence (P16152 1-277): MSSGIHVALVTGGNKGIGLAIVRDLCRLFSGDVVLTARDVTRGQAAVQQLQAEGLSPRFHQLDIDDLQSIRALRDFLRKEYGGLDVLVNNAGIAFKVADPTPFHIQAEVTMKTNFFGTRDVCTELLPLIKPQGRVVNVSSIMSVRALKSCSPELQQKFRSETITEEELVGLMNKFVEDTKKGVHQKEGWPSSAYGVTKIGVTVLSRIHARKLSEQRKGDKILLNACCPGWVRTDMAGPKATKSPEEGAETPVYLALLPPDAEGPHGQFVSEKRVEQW

[5] = molecular target: T5, non-HDAC targets (e.g. BZW2, ISOC2, aldehyde dehydrogenases) (Homo sapiens, UniProt Q08209); assay: as above; conditions: protein PPP3CA; selected HDACi off-targets
T5 construct: Kd^app PPP3CA; other: protein PPP3CA; selected HDACi off-targets

CoREST complex = assay: as above; set-up: species or system human; conditions: CoREST complex
MIER3 = assay: Chemoproteomic binding profiling, K562 cell extract, SAHA/ITF2357 probe matrix (Kd app), ELSA (ELM-SANT) domain protein; set-up: species or system human; conditions: ELSA (ELM-SANT) domain proteins
MIER1 = assay: as above; set-up: species or system human; conditions: ELSA (ELM-SANT) domain proteins
NuRD complex = assay: Chemoproteomic binding profiling, K562 cell extract, SAHA/ITF2357 probe matrix (Kd app); set-up: species or system human; conditions: NuRD complex
RERE = assay: Chemoproteomic binding profiling, K562 cell extract, SAHA/ITF2357 probe matrix (Kd app), ELSA (ELM-SANT) domain protein; set-up: species or system human; conditions: protein RERE; ELSA (ELM-SANT) domain proteins
EHMT2 = assay: Chemoproteomic binding profiling, K562 cell extract, SAHA/ITF2357 probe matrix (Kd app), ELSA (ELM-SANT) domain proteins group; set-up: species or system human; conditions: protein EHMT2
MIER2 = assay: Chemoproteomic binding profiling, K562 cell extract, SAHA/ITF2357 probe matrix (Kd app), ELSA (ELM-SANT) domain protein; set-up: species or system human; conditions: ELSA (ELM-SANT) domain proteins
[6] = tested on: T6, MiDAC complex (HDAC1/2, DNTTIP1, CDYL, MIDEAS); assay: Chemoproteomic binding profiling, K562 cell extract, SAHA/ITF2357 probe matrix (Kd app); set-up: species or system human
T6 construct: Kd^app MIDEAS; other: protein MIDEAS; MiDAC complex; Kd^app DNTTIP1; other: protein DNTTIP1

Sin3 complex = assay: as above; set-up: species or system human
[7] = protein GSE1, read-out: Kd^app GSE1
[8] = protein HMG20A, read-out: Kd^app HMG20A
[9] = protein HMG20B, read-out: Kd^app HMG20B
[10] = protein PHF21A, read-out: Kd^app PHF21A
[11] = protein RCOR1, read-out: Kd^app RCOR1
[12] = protein RCOR3, read-out: Kd^app RCOR3
[13] = protein ZMYM2, read-out: Kd^app ZMYM2
[14] = protein GATAD2A, read-out: Kd^app GATAD2A
[15] = protein GATAD2B, read-out: Kd^app GATAD2B
[16] = protein MBD3, read-out: Kd^app MBD3
[17] = protein MTA1, read-out: Kd^app MTA1
[18] = protein MTA2, read-out: Kd^app MTA2
[19] = protein MTA3, read-out: Kd^app MTA3

Row | Kd [1] [µM] | Kd [2] [µM] | Kd [3] [µM] | Kd [4] [µM] | Kd [5] [µM] | SMILES | Kd (CoREST complex; [7]) [µM] | Kd (CoREST complex; [8]) [µM] | Kd (CoREST complex; [9]) [µM] | Kd (CoREST complex; [10]) [µM] | Kd (CoREST complex; [11]) [µM] | Kd (CoREST complex; [12]) [µM] | Kd (CoREST complex; [13]) [µM] | Kd (MIER3) [µM] | Kd (MIER1) [µM] | Kd (NuRD complex; [14]) [µM] | Kd (NuRD complex; [15]) [µM] | Kd (NuRD complex; [16]) [µM] | Kd (NuRD complex; [17]) [µM] | Kd (NuRD complex; [18]) [µM] | Kd (NuRD complex; [19]) [µM] | also measured
1 | > 10 | > 10 | > 10 | 8.23 | 12.1 | Cc1[nH]c2ccccc2c1CCNCc1ccc(/C=C/C(=O)NO)cc1 [panobinostat] | – | – | – | – | – | – | – | – | – | – | – | – | – | – | – | –
2 | 1.71 | > 10 | > 10 | 0.88 | 1.51 | O=C(/C=C/c1ccc(CN(CCO)CCc2c[nH]c3ccccc23)cc1)NO [dacinostat] | 0.01 | 0.01 | 0.01 | 0.02 | 0.01 | 0.01 | 0.01 | 0.01 | 0.02 | 0.02 | 0.02 | 0.02 | 0.02 | 0.02 | 0.02 | Kd (RERE): > 10 µM
3 | 4 | > 10 | 5 | 19 | 40 | Cn1cc(C(=O)Cc2ccccc2)cc1C=CC(=O)NO [MC-1293] | > 10 | > 10 | > 10 | > 10 | > 10 | > 10 | > 10 | 209 | > 10 | > 10 | > 10 | > 10 | > 10 | > 10 | > 10 | Kd (EHMT2): > 10 µM; Kd (CoREST complex; protein RCOR2, read-out: Kd^app RCOR2): > 10 µM; Kd (CoREST complex; protein ZMYM3, read-out: Kd^app ZMYM3): > 10 µM; Kd (MIER2): > 10 µM; Kd (NuRD complex; protein CHD4, read-out: Kd^app CHD4): > 10 µM; Kd (NuRD complex; protein MBD2, read-out: Kd^app MBD2): > 10 µM; Kd ([6]; protein DNTTIP1, read-out: Kd^app DNTTIP1): > 10 µM; Kd ([6]; protein MIDEAS, read-out: Kd^app MIDEAS): > 10 µM; Kd (Sin3 complex; protein SAP30, read-out: Kd^app SAP30): 164 µM; Kd (Sin3 complex; protein SIN3A, read-out: Kd^app SIN3A): > 10 µM; Kd (Sin3 complex; protein SIN3B, read-out: Kd^app SIN3B): > 10 µM; Kd (RERE): > 10 µM
